Experimental data reported in US11357817B2, “Immunoproteasome inhibitor” (The Regents of the University of California, priority 2017, dated 2022).

Legend:
P. falciparum Dd2 = P. falciparum Dd2 asexual blood stage SYBR Green I compound sensitivity assay; type: cell-based, Plasmodium falciparum; conditions: for Selectivity Index: P. falciparum activity versus HepG2 activity; for IC50: asexual blood stage, 72 hour SYBR green assay
Protocol: P. falciparum Dd2 strain parasites were cultured under standard conditions (31), using RPMI media supplemented with 0.05 mg/ml gentamycin, 0.014 mg/mL hypoxanthine (prepared fresh), 38.4 mM HEPES, 0.2% Sodium Bicarbonate, 3.4 mM Sodium Hydroxide, 0.05% O+ Human Serum (Denatured at […] for 40 min and From Interstate Blood Bank, Memphis, Tenn.) and 0.0025% Albumax). Human O+ whole blood was obtained from TSRI blood bank (La Jolla, Calif.). Leukocyte-free erythrocytes are stored at 50% hematocrit in RPMI-1640 screening media (as above, but without O+ human serum and with 2× albumax concentration) at 4° C. for one to three weeks before experimental use. Cultures were monitored every one to two days via Giemsa-stained thin smears.
Compound susceptibility was measured using the malaria SYBR Green I-based fluorescence assay (32). Asynchronous P. falciparum parasites (Dd2 strain) were cultured in standard conditions before being plated for the assays. Each compound was tested over 72 hours in technical duplicates on a twelve-point concentration curve prepared by three-fold dilution from 6.7 μM to 0.11 nM. At least three independent experiments were carried out for IC50 determination. Artemisinin and chloroquine were used as controls. IC50 values were obtained using normalized fluorescence intensity from SYBR green I and analyzed via non-linear variable slope four-parameter regression curve-fitting model in Prism 6 (GraphPad Software Inc).

HepG2 cells = experiment: HepG2 cytotoxicity assay; type: cell-based; conditions: Homo sapiens
Protocol: The liver-stage and HepG2 toxicity assays were performed as previously reported (35). Briefly, HepG2-A16-CD81EGFP, human hepatocarcinoma HepG2 cells stably transformed to express the tetraspanin CD81 receptor (36, 37) and thus susceptible to P. berghei infection, were cultured at 37° C. in 5% CO2 in DMEM (Life Technologies, Calif.) supplemented with 10% FBS, 0.29 mg/ml glutamine, 100 unit penicillin and 100 μg/ml streptomycin. For both the P. berghei-luciferase and HepG2 cytotoxicity assays, 3×10^3 of the HepG2-A16-CD81EGFP cells in 5 μl of assay medium (DMEM without Phenol Red (Life Technologies, Calif.), 5% FBS, and 5× Pen Strep Glutamine (Life Technologies, Calif.)) at concentration 6×10^5 cells/ml were seeded in 1536-well plates (Greiner BioOne white solid bottom custom GNF mold) 20-26 hours prior to the actual infection. 18 hours prior to infection, 50 nl of compound in DMSO (0.5% final DMSO concentration per well) were transferred with Acoustic Transfer System (ATS) (Biosero) into the assay plates. Atovaquone (12-point serial dilution starting at 10 μM) and Puromycin (12-point serial dilution starting at 10 μM) were used as positive controls for Pb. liver stage assay and HepG2 cytotoxicity respectively. 0.5% DMSO was used as negative control for the both assays.
An. stephensi mosquitoes, infected with P. berghei-luciferase, were provided by the New York University Insectary. P. berghei-luciferase sporozoites were freshly dissected from the infected A. stephensi mosquito salivary glands, filtered twice through a 20 μm nylon net filter using Steriflip Vacuum-Driven Filtration System (Millipore), counted in a hemocytometer, and then adjusted to final concentration 200 sporozoites per μl in the assay media. […] The HepG2-A16-CD81EGFP cell designated for toxicity studies were left uninfected, with 5 ul of additional assay media added to each well to maintain equal concentrations of compounds with P. berghei-luciferase infected plates. After incubation at 37° C. for 48 hours the exoerythrocytic growth and HepG2-A16-CD81EGFP cell viability were quantified by a bioluminescence measurement.
The HepG2 cytotoxicity was assessed by removing the media through an inverted spin of the plates at 150 g for 30 s and addition of 2 μL of CellTiterGlo reagent (Promega diluted 1:2 with deionized water) per well using the MicroFlo liquid handler (BioTek). Immediately after addition of the luminescence reagent, the plates were vortexed for 10 s and read with an EnVision Multilabel reader (PerkinElmer). IC50 values were obtained as above.

[1] = Plasmodium falciparum, DD2, 72 h

Row | Compound | IC50 (P. falciparum Dd2; [1]) [nM] | IC50 (P. falciparum Dd2; listed as 20) [nM] | IC50 (P. falciparum Dd2; listed as 3) [nM] | Selectivity Index (P. falciparum Dd2) | IC50 (HepG2 cells) [nM] | Selectivity Index (P. falciparum Dd2; listed as 20) | Selectivity Index (P. falciparum Dd2; listed as 3)
1 | CCCCCC(=O)NC(Cc1ccc(NC(=O)OC(C)(C)C)cc1)C(=O)N[C@@H](Cc1ccc(NC(=O)OC(C)(C)C)cc1)C(=O)N[C@@H](Cc1ccccc1)C(=O)[C@@]1(C)CO1 (stereo in doubt) [Analog 15, tert-butyl (4-((R)-3-(((S)-3-(4-((tert-butoxycarbonyl)amino)phenyl)-1-(((S)-1-((R)-2-methyloxiran-2-yl)-1-oxo-3-phenylpropan-2-yl)amino)-1-oxopropan-2-yl)amino)-2-hexanamido-3-oxopropyl)phenyl)carbamate] | 12.2 ± 3.83 |  |  | 3.75 | 45.7 ± 15.7 |  | 
2 | CCCCCC(=O)N[C@@H](Cc1ccc(NC(=O)OC(C)(C)C)cc1)C(=O)N[C@@H](CCCC)C(=O)N[C@@H](Cc1ccccc1)C(=O)[C@@]1(C)CO1 [Analog 10, tert-butyl (4-((S)-2-hexanamido-3-(((S)-1-(((S)-1-((R)-2-methyloxiran-2-yl)-1-oxo-3-phenylpropan-2-yl)amino)-1-oxohexan-2-yl)amino)-3-oxopropyl)phenyl)carbamate] | 5.45 ± 2.49 |  |  | 87.71 | 478 ± 126 |  | 
3 | CCCCCC(=O)N[C@@H](Cc1c[nH]c2ccccc12)C(=O)N[C@@H](CCCC)C(=O)N[C@@H](CC(C)C)C(=O)[C@@]1(C)CO1 [Analog 6, (S)-2-((S)-2-hexanamido-3-(1H-indol-3-yl)propanamido)-N—((S)-4-methyl-1-((R)-2-methyloxiran-2-yl)-1-oxopentan-2-yl)hexanamide] | 3.11 ± 0.026 |  |  | 1.05 | 3.27 ± 1.29 |  | 
4 | CCCCCC(=O)NC(Cc1ccc(N)cc1)C(=O)N[C@@H](Cc1ccc(N)cc1)C(=O)N[C@@H](CC(C)C)C(=O)[C@@]1(C)CO1 (stereo in doubt) [Analog 12, N—((R)-3-(4-aminophenyl)-1-(((S)-3-(4-aminophenyl)-1-(((S)-4-methyl-1-((R)-2-methyloxiran-2-yl)-1-oxopentan-2-yl)amino)-1-oxopropan-2-yl)amino)-1-oxopropan-2-yl)hexanamide] | 59.6 ± 15.4 |  |  | 0.02 | 0.91 ± 0.25 |  | 
5 | CCCCCC(=O)NC(Cc1ccc(NC(=O)OC(C)(C)C)cc1)C(=O)N[C@@H](Cc1ccc(NC(=O)OC(C)(C)C)cc1)C(=O)N[C@@H](CC(C)C)C(=O)[C@@]1(C)CO1 (stereo in doubt) [Analog 14, tert-butyl (4-((R)-3-(((S)-3-(4-((tert-butoxycarbonyl)amino)phenyl)-1-(((S)-4-methyl-1-((R)-2-methyloxiran-2-yl)-1-oxopentan-2-yl)amino)-1-oxopropan-2-yl)amino)-2-hexanamido-3-oxopropyl)phenyl)carbamate] | 13.5 ± 4.69 |  |  | 8.74 | 118 ± 21.7 |  | 
6 | CCCCCC(=O)NC(Cc1ccc(N)cc1)C(=O)N[C@@H](Cc1ccc(N)cc1)C(=O)N[C@@H](Cc1ccccc1)C(=O)[C@@]1(C)CO1 (stereo in doubt) [Analog 13, N—((R)-3-(4-aminophenyl)-1-(((S)-3-(4-aminophenyl)-1-(((S)-1-((R)-2-methyloxiran-2-yl)-1-oxo-3-phenylpropan-2-yl)amino)-1-oxopropan-2-yl)amino)-1-oxopropan-2-yl)hexanamide] | 68.2 ± 15.4 |  |  | 13.96 | 952 ± 275 |  | 
7 | CCCCCC(=O)N[C@@H](Cc1c[nH]c2ccccc12)C(=O)N[C@@H](Cc1c[nH]c2ccccc12)C(=O)N[C@@H](CC(C)C)C(=O)[C@@]1(C)CO1 [Analog 16, N—((S)-1-(((S)-3-(1H-indol-3-yl)-1-(((S)-4-methyl-1-((R)-2-methyloxiran-2-yl)-1-oxopentan-2-yl)amino)-1-oxopropan-2-yl)amino)-3-(1H-indol-3-yl)-1-oxopropan-2-yl)hexanamide] | 3.7 ± 0.144 |  |  | 3.16 | 11.7 ± 3.32 |  | 
8 | CCCCCC(=O)N[C@@H](Cc1ccc(NC(=O)OC(C)(C)C)cc1)C(=O)N[C@@H](CCCC)C(=O)N[C@@H](CC(C)C)C(=O)[C@@]1(C)CO1 [Analog 5, tert-butyl (4-((S)-2-hexanamido-3-(((S)-1-(((S)-4-methyl-1-((R)-2-methyloxiran-2-yl)-1-oxopentan-2-yl)amino)-1-oxohexan-2-yl)amino)-3-oxopropyl)phenyl)carbamate] | 5.55 ± 0.23 |  |  | 14.45 | 80.2 ± 26.5 |  | 
9 | CCCCCC(=O)N[C@@H](Cc1ccncc1)C(=O)N[C@@H](CCCC)C(=O)N[C@@H](CC(C)C)C(=O)[C@@]1(C)CO1 [Analog 20] |  | 21.8 ± 3.67 |  |  |  | 0.01 | 
10 | CCCCCC(=O)N[C@@H](Cc1c[nH]c2ccccc12)C(=O)N[C@@H](Cc1c[nH]c2ccccc12)C(=O)N[C@@H](Cc1ccccc1)C(=O)[C@@]1(C)CO1 [Analog 17, N—((S)-1-(((S)-3-(1H-indol-3-yl)-1-(((S)-1-((R)-2-methyloxiran-2-yl)-1-oxo-3-phenylpropan-2-yl)amino)-1-oxopropan-2-yl)amino)-3-(1H-indol-3-yl)-1-oxopropan-2-yl)hexanamide] | 9.38 ± 0.667 |  |  | 36.89 | 346 ± 86.2 |  | 

Further lines, with some results ahead:

Row | IC50 (P. falciparum Dd2; [1]) [nM] | IC50 (P. falciparum Dd2; listed as 20) [nM] | IC50 (P. falciparum Dd2; listed as 3) [nM] | Compound | Selectivity Index (P. falciparum Dd2) | IC50 (HepG2 cells) [nM] | Selectivity Index (P. falciparum Dd2; listed as 20) | Selectivity Index (P. falciparum Dd2; listed as 3)
11 | 81.8 ± 14 |  |  | CCCCCC(=O)N[C@@H](Cc1ccc(N)cc1)C(=O)N[C@@H](CCCC)C(=O)N[C@@H](Cc1ccccc1)C(=O)[C@@]1(C)CO1 [Analog 9, (S)-2-((S)-3-(4-aminophenyl)-2-hexanamidopropanamido)-N—((S)-1-((R)-2-methyloxiran-2-yl)-1-oxo-3-phenylpropan-2-yl)hexanamide] | 41.69 | 3410 ± 2310 |  | 
12 | 3.87 ± 1.37 |  |  | CCCCCC(=O)N[C@@H](Cc1ccncc1)C(=O)N[C@@H](CCCC)C(=O)N[C@@H](Cc1ccccc1)C(=O)[C@@]1(C)CO1 [Analog 8, (S)-2-((S)-2-hexanamido-3-(pyridin-4-yl)propanamido)-N—((S)-1-((R)-2-methyloxiran-2-yl)-1-oxo-3-phenylpropan-2-yl)hexanamide] | 0.07 | < 0.283 |  | 
13 |  |  | 3.28 ± 0.674 | CCCCCC(=O)N[C@@H](Cc1ccncc1)C(=O)N[C@@H](CCCC)C(=O)N[C@@H](CC(C)C)C(=O)[C@@]1(C)CO1 [Analog 3, (S)-2-((S)-2-hexanamido-3-(pyridin-4-yl)propanamido)-N—((S)-4-methyl-1-((R)-2-methyloxiran-2-yl)-1-oxopentan-2-yl)hexanamide] |  | < 0.283 |  | 0.09
14 | 9.77 ± 1.31 |  |  | CCCCCC(=O)N[C@@H](Cc1c[nH]c2ccccc12)C(=O)N[C@@H](CCCC)C(=O)N[C@@H](Cc1ccccc1)C(=O)[C@@]1(C)CO1 [Analog 11, (S)-2-((S)-2-hexanamido-3-(1H-indol-3-yl)propanamido)-N—((S)-1-((R)-2-methyloxiran-2-yl)-1-oxo-3-phenylpropan-2-yl)hexanamide] | 0.66 | 6.41 ± 2.26 |  | 
15 | 4.04 ± 0.759 |  |  | CCCCCC(=O)N[C@@H](Cc1ccccc1)C(=O)N[C@@H](CCCC)C(=O)N[C@@H](CC(C)C)C(=O)[C@@]1(C)CO1 [Analog 2, (S)-2-((S)-2-hexanamido-3-phenylpropanamido)-N—((S)-4-methyl-1-((R)-2-methyloxiran-2-yl)-1-oxopentan-2-yl)hexanamide] | 5.62 | 22.7 ± 8.42 |  | 
